# Data: patent publication US20070154534A1, “Use of secretin in the treatment of schizophrenia” (priority 2003, published 2007)
# Marks after values point to notes of the source that are not given here. Ends that are not written are not given here.
# Key:
# [1] = clinical units (CU); 0.2 mcg = 1 CU; cited from earlier work
# [2] = system: patients with refractory schizophrenia; conditions: in vivo, iv
# Procedure: Twenty-two subjects were enrolled in the protocol and were randomly assigned to receive one dose of intravenous porcine secretin (SECRETIN-FERRING™, Ferring Laboratories, Inc., Suffern, N.Y., United States of America) or normal saline under double-blind conditions. The protocol allowed for only one infusion of secretin regardless of response. The first seven subjects received either 75 CU of secretin dissolved in 7.5 mL of normal saline (n=4), or saline alone (n=3). The remaining 15 subjects received 150 CU of secretin (n=7) or saline (n=8).
# [3] = system: patients with refractory schizophrenia; assay: Double-blind placebo-controlled pilot study of a single intravenous dose of porcine secretin, rated with PANSS and CGI; assay type: in vivo, human; conditions: for PANSS negative: baseline 25.5; for PANSS positive: baseline 27; for PANSS general: baseline 48.7; for PANSS total: baseline 101.2
# Procedure: A pilot study of secretin for treatment of refractory schizophrenia was performed. Twenty-two patients were randomized to a single intravenous dose of porcine secretin or placebo. Patients were evaluated with the Positive and Negative Symptom Scale for Schizophrenia (PANSS) and the Clinical Global Impression Scale (CGI) at baseline, two days after secretin infusion and weekly for four weeks. Several patients treated with secretin experienced clinically meaningful, though transient when given a single dose, reductions in symptoms and a greater percentage of patients treated with secretin were rated as improved with the CGI.
# All subjects were inpatients at Dorothea Dix Hospital in Raleigh, N.C. United States of America. The protocol was approved by the University of North Carolina at Chapel Hill Committee for the Protection of the Rights of Research Subjects. Subjects or their guardians provided written informed consent. Patients met the following inclusion criteria: (1) age 18-60; (2) DSM-IV diagnosis of schizophrenia or schizoaffective disorder; (3) severe residual symptoms despite at least three adequate trials of anti-psychotic drugs, including at least one atypical drug. Residual symptoms were defined as active delusions, hallucinations, or thought disorder, accompanied by unemployment and lack of significant social relationships outside the family of origin; (4) a baseline PANSS score of at least 70; (5) no changes in psychotropic medications for 4 weeks prior to study entry.
# Subjects were assessed at baseline, two days post-infusion, and weekly for four subsequent weeks, with the Clinical Global Impression Scale (CGI) and the Positive and Negative Symptom Scale for Schizophrenia (PANSS). All raters achieved inter-rater reliability of at least 0.90 for the PANSS, and each subject had the same rater for each assessment. Qualitative impressions were also collected from clinical staff during the course of the trial.
# [4] = Week 1, single i.v. dose 75 or 150 CU, n=11, mean
# [5] = Week 1 after single i.v. dose 75 or 150 CU, n=11, mean
# [6] = Week 2, single i.v. dose 75 or 150 CU, n=11, mean
# [7] = Week 2 after single i.v. dose 75 or 150 CU, n=11, mean
# [8] = Week 3, single i.v. dose 75 or 150 CU, n=11, mean
# [9] = Week 3 after single i.v. dose 75 or 150 CU, n=11, mean
# [10] = Week 4, single i.v. dose 75 or 150 CU, n=11, mean
# [11] = Week 4 after single i.v. dose 75 or 150 CU, n=11, mean
# [12] = within the first week after infusion, of 11 secretin-treated patients
substance,measurement,setting,value
"biologically derived porcine secretin: biologically derived porcine secretin, comparison for SECREFLO potency (HSDGTFTSELSRLRDSARLQRLLQGLV; ends and bridges not checked; UniProt P63298 33-59, looked up)",Potency per milligram of peptide,[1],3000 CU per milligram
Secretin,Allergic reactions,[2],no allergic reactions were observed
same,Premature dropouts or serious adverse events during the trial,[2],no premature dropouts or serious adverse events
same,Side effects,[2],no side effects noted
same,Patients with a clinically meaningful response,[3]; 75 CU single i.v. dose,1 of 4
same,Patients with a clinically meaningful response,[3]; 150 CU single i.v. dose,2 of 7
same,CGI-I,"[3]; Day 2 after single i.v. dose 75 or 150 CU, n=11, mean (SD)",3.5 (0.8)*
same,"Group by time interaction for the CGI-Improvement (CGI-I) scale (repeated measures ANOVA, vs placebo)",[3]; F=0.69,no significant group by time interaction
same,"Group by time interaction for PANSS total, positive, negative and general psychopathology scores (repeated measures ANOVA, vs placebo)","[3]; F=1.72, 1.08, 0.6679, 0.41",no significant group by time interactions
same,PANSS negative,[3]; [4],24.3
same,PANSS positive,[3]; [4],25
same,PANSS general,[3]; [4],45.8
same,CGI-I,[3]; [5],3.4*
same,PANSS total,[3]; [5],95.1
same,PANSS negative,[3]; [6],24.7
same,PANSS positive,[3]; [6],26.9
same,PANSS general,[3]; [6],49.2
same,CGI-I,[3]; [7],3.9
same,PANSS total,[3]; [7],100.8
same,PANSS negative,[3]; [8],24.9
same,PANSS positive,[3]; [8],27
same,PANSS general,[3]; [8],48.2
same,CGI-I,[3]; [9],3.8*
same,PANSS total,[3]; [9],100.1
same,PANSS negative,[3]; [10],24.5
same,PANSS positive,[3]; [10],26.7
same,PANSS general,[3]; [10],48.3
same,CGI-I,[3]; [11],3.9
same,PANSS total,[3]; [11],99.5
same,Time until reversion to usual behavior and level of function,"[3]; patient of Example 1, 75 CU",four
same,Time to onset of clinical improvement (more interactive),"[3]; patient of Example 1, person, disorganized schizophrenia, 75 CU",≤ 24 h
same,Time until return to baseline mental state,"[3]; patient of Example 2, 150 CU",≤ 12 h
same,"Time to onset of clinical improvement (more alert, coherent speech)","[3]; patient of Example 2, person, disorganized schizophrenia, 150 CU",six
same,Time after infusion at which improvement was seen (agreed to attend off ward activities),"[3]; patient of Example 3, person, paranoid schizophrenia, 150 CU",48 h
same,"CGI-I scale vs placebo, post-hoc exploratory Student's t-tests","[3]; two days after infusion (p=0.03), week 1 (p=0.009), week 3 (p=0.002)",significant improvement
same,Patients rated as minimally improved (qualitative grouping of CGI-I scores),[3]; [12],five
same,Patients rated as much improved (qualitative grouping of CGI-I scores),[3]; [12],three
same,Patients rated as unchanged (qualitative grouping of CGI-I scores),[3]; [12],two
same,Patients rated as worse (qualitative grouping of CGI-I scores),[3]; [12],one
"SECREFLO: Secretin commercially available under the trademark SECREFLO from RepliGen Corporation (HSDGTFTSELSRLRDSARLQRLLQGLV-NH2; ends and bridges not checked; UniProt P63298 33-59, looked up)",Potency per milligram of peptide,[1],approximately 5000 CU per milligram
